Patent publication US11629171B2, “Beta-hairpin peptidomimetics” (POLYPHOR AG, priority 2017, dated 2023)
≈ marks a conversion by molar mass, not a printed value. Where a SMILES comes first, the peptide text is derived from it. Bridges are numbered along the chain shown (N, C = ends). Roman numbers before positions name the chains, in order. [ ]: non-standard residue; d: D form. Leu(3R-OH) = CC(C)[C@@H](O)[C@H](N)C(=O)O; dThr(ol) = C[C@H](O)[C@@H](N)CO; Thr(ol) = C[C@@H](O)[C@H](N)CO; Tle = CC(C)(C)[C@H](N)C(=O)O; Hiv = CC(C)[C@H](O)C(=O)O; dDab = NCC[C@@H](N)C(=O)O; hSer = N[C@@H](CCO)C(=O)O; Dab = NCC[C@H](N)C(=O)O; Dap = NC[C@H](N)C(=O)O

How the values were obtained:
Type in all cases: cell-based
[1] = system: human red blood cells (hRBC); experiment: Hemolysis; details: red cells of human, 1 h, 200
In short: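 Percent lysis of human red cells was derived from OD540 of the supernatant, referenced to 2% Triton X-100, after a 1 h, 37° C incubation of 20% (v/v) cells with 200 μg/mL peptide.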

[2] = system: Acinetobacter baumannii DSM 30008; details: DSM 30008
In short: (§1)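 CLSI broth microdilution: inoculum ~10^6 CFU/mL in cation-adjusted Mueller-Hinton II broth, with peptide in serial two-fold dilutions plus Polysorbate 80 (0.002% final). MIC (μg/mL) is the lowest concentration without visible growth after 18-20 hours at 35° C.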

[3] = system: Klebsiella pneumoniae SSI #3010; details: SSI #3010
In short: as §1

[4] = system: Pseudomonas aeruginosa ATCC 27853; details: ATCC 27853
In short: as §1

[5] = system: Enterobacter cloacae 848840; details: 848840
In short: as §1

[6] = system: Klebsiella pneumoniae 968733; details: 968733
In short: as §1

Escherichia coli 926415 = details: 926415
In short: as §1

[7] = system: Escherichia coli ATCC 25922; details: ATCC 25922
In short: as §1

[8] = system: Acinetobacter baumannii 872842; details: 872842
In short: as §1

| MIC [2] [µg/mL] | MIC [3] [µg/mL] | MIC [4] [µg/mL] | MIC [5] [µg/mL] | MIC [6] [µg/mL] | MIC (Escherichia coli 926415) [µg/mL] | MIC [7] [µg/mL] | MIC [8] [µg/mL] | Structure (SMILES) | Hemolysis at 200 μg/mL [1] [%] |
| --- | --- | --- | --- | --- | --- | --- | --- | --- | --- |
| 0.0625 (≈ 0.026 µM) | 0.125 (≈ 0.0521 µM) | 0.125 (≈ 0.0521 µM) | 0.125 (≈ 0.0521 µM) | 0.25 (≈ 0.104 µM) | 0.25 (≈ 0.104 µM) | 0.0625 (≈ 0.026 µM) | 0.0625 (≈ 0.026 µM) | CC(=O)N[C@H](C(=O)N[C@H]1CSSC[C@@H](C(=O)N[C@@H](CO)[C@H](C)O)NC(=O)[C@H](C(C)(C)C)NC(=O)[C@H](CO)NC(=O)[C@H](Cc2c[nH]c3ccccc23)NC(=O)[C@H](CO)NC(=O)[C@@H](CCN)NC(=O)[C@H](CCC(=O)N[C@@H](CCN)C(=O)N[C@H](C(=O)N[C@@H](CN)C(=O)N[C@H]2CCNC(=O)[C@H]([C@@H](C)O)NC(=O)[C@H](CCN)NC(=O)[C@H](CCN)NC(=O)[C@H](CC(C)C)NC(=O)[C@@H](CC(C)C)NC(=O)[C@H](CCN)NC2=O)[C@@H](C)O)NC(=O)[C@H](CN)NC(=O)[C@H](Cc2ccc(O)cc2)NC1=O)C(C)C [Ex. 124] (I: Ac-VCY[Dap]E[dDab]SWS[Tle]C[dThr(ol)] / II: [Dab]T[Dap][Dab][Dab][dL]L[Dab][Dab]T; disulfide I:2-I:11; amide I:5-II:N; lactam II:4-II:C) | 2 |
| 0.125 (≈ 0.0518 µM) | 0.0625 (≈ 0.0259 µM) | 0.125 (≈ 0.0518 µM) | 0.125 (≈ 0.0518 µM) | 0.125 (≈ 0.0518 µM) | 0.0625 (≈ 0.0259 µM) | 0.0625 (≈ 0.0259 µM) | 0.125 (≈ 0.0518 µM) | CC(=O)N[C@@H](CCN)C(=O)N[C@H](C(=O)N[C@H]1CSSC[C@@H](C(N)=O)NC(=O)[C@H](C(C)(C)C)NC(=O)[C@H](CO)NC(=O)[C@H](Cc2c[nH]c3ccccc23)NC(=O)[C@H](CO)NC(=O)[C@@H](CCN)NC(=O)[C@H](CCC(=O)N[C@@H](CCN)C(=O)N[C@H](C(=O)N[C@@H](CN)C(=O)N[C@H]2CCNC(=O)[C@H]([C@@H](C)O)NC(=O)[C@H](CCN)NC(=O)[C@H](CCN)NC(=O)[C@H](CC(C)C)NC(=O)[C@@H](CC(C)C)NC(=O)[C@H](CCN)NC2=O)[C@@H](C)O)NC(=O)[C@H](CN)NC(=O)[C@H](Cc2ccc(O)cc2)NC1=O)C(C)C [Ex. 125] (I: Ac-[Dab]VCY[Dap]E[dDab]SWS[Tle]C-NH2 / II: [Dab]T[Dap][Dab][Dab][dL]L[Dab][Dab]T; disulfide I:3-I:12; amide I:6-II:N; lactam II:4-II:C) | 2 |
| 0.125 (≈ 0.0515 µM) | 0.125 (≈ 0.0515 µM) | 0.25 (≈ 0.103 µM) | 0.5 (≈ 0.206 µM) | 0.25 (≈ 0.103 µM) | 0.125 (≈ 0.0515 µM) | 0.125 (≈ 0.0515 µM) | 0.25 (≈ 0.103 µM) | CC(=O)N[C@@H](CCN)C(=O)N[C@H](C(=O)N[C@H]1CSSC[C@@H](C(N)=O)NC(=O)[C@H](C(C)(C)C)NC(=O)[C@H](CO)NC(=O)[C@H](Cc2c[nH]c3ccccc23)NC(=O)[C@H](CCN)NC(=O)[C@@H](CCN)NC(=O)[C@H](CCC(=O)N[C@@H](CCN)C(=O)N[C@H](C(=O)N[C@@H](CN)C(=O)N[C@H]2CCNC(=O)[C@H]([C@@H](C)O)NC(=O)[C@H](CCN)NC(=O)[C@H](CCN)NC(=O)[C@H](CC(C)C)NC(=O)[C@@H](CC(C)C)NC(=O)[C@H](CCN)NC2=O)[C@@H](C)O)NC(=O)[C@H](CN)NC(=O)[C@H](Cc2ccc(O)cc2)NC1=O)C(C)C [Ex. 126] (I: Ac-[Dab]VCY[Dap]E[dDab][Dab]WS[Tle]C-NH2 / II: [Dab]T[Dap][Dab][Dab][dL]L[Dab][Dab]T; disulfide I:3-I:12; amide I:6-II:N; lactam II:4-II:C) | <1 |
| 0.0625 (≈ 0.0283 µM) | 0.25 (≈ 0.113 µM) | 0.5 (≈ 0.226 µM) | 0.125 (≈ 0.0565 µM) | 0.5 (≈ 0.226 µM) | 0.125 (≈ 0.0565 µM) | 0.0625 (≈ 0.0283 µM) | 0.0625 (≈ 0.0283 µM) | CC(C)C[C@@H]1NC(=O)[C@H](CCN)NC(=O)[C@H](CCN)NC(=O)[C@H](CC(C)C)NC(=O)[C@@H](CC(C)C)NC(=O)[C@H](CCN)NC(=O)[C@@H](NC(=O)[C@@H](CCN)NC(=O)CC[C@@H]2NC(=O)[C@H](CCN)NC(=O)[C@H](Cc3ccc(O)cc3)NC(=O)[C@@H](NC(=O)[C@@H](O)C(C)C)CSSC[C@@H](C(=O)N[C@H](CO)[C@@H](C)O)NC(=O)[C@H](C(C)(C)C)NC(=O)[C@H](CO)NC(=O)[C@H](Cc3c[nH]c4ccccc34)NC(=O)[C@H](CCO)NC(=O)[C@@H](CCN)NC2=O)CCNC1=O [Ex. 127] (I: H-[Hiv]CY[Dab]E[dDab][hSer]WS[Tle]C[Thr(ol)] / II: [dDab][Dab][Dab][dL]L[Dab][Dab]L; disulfide I:2-I:11; amide I:5-II:N; lactam II:2-II:C) | 2 |
| 0.03125 (≈ 0.013 µM) | 0.125 (≈ 0.0521 µM) | 0.125 (≈ 0.0521 µM) | 0.125 (≈ 0.0521 µM) | 0.125 (≈ 0.0521 µM) | 0.0625 (≈ 0.026 µM) | 0.03125 (≈ 0.013 µM) | 0.0625 (≈ 0.026 µM) | CC(=O)N[C@H](C(=O)N[C@H]1CSSC[C@@H](C(=O)N[C@@H](CO)C(N)=O)NC(=O)[C@H](C(C)(C)C)NC(=O)[C@H](CO)NC(=O)[C@H](Cc2c[nH]c3ccccc23)NC(=O)[C@H](CO)NC(=O)[C@@H](CCN)NC(=O)[C@H](CCC(=O)N[C@@H](CCN)C(=O)N[C@H](C(=O)N[C@@H](CN)C(=O)N[C@H]2CCNC(=O)[C@H]([C@@H](C)O)NC(=O)[C@H](CCN)NC(=O)[C@H](CCN)NC(=O)[C@H](CC(C)C)NC(=O)[C@@H](CC(C)C)NC(=O)[C@H](CCN)NC2=O)[C@@H](C)O)NC(=O)[C@H](CO)NC(=O)[C@H](Cc2ccc(O)cc2)NC1=O)C(C)C [Ex. 132] (I: Ac-VCYSE[dDab]SWS[Tle]CS-NH2 / II: [Dab]T[Dap][Dab][Dab][dL]L[Dab][Dab]T; disulfide I:2-I:11; amide I:5-II:N; lactam II:4-II:C) | 2 |
| 0.0625 (≈ 0.0259 µM) | 0.125 (≈ 0.0518 µM) | 0.25 (≈ 0.104 µM) | 0.25 (≈ 0.104 µM) | 0.125 (≈ 0.0518 µM) | 0.0625 (≈ 0.0259 µM) | 0.03125 (≈ 0.013 µM) | 0.03125 (≈ 0.013 µM) | CC(=O)N[C@H](C(=O)N[C@H]1CSSC[C@@H](C(=O)N[C@@H](CO)C(N)=O)NC(=O)[C@H](C(C)(C)C)NC(=O)[C@H](CO)NC(=O)[C@H](Cc2c[nH]c3ccccc23)NC(=O)[C@H](CCN)NC(=O)[C@@H](CCN)NC(=O)[C@H](CCC(=O)N[C@@H](CCN)C(=O)N[C@H](C(=O)N[C@@H](CN)C(=O)N[C@H]2CCNC(=O)[C@H]([C@@H](C)O)NC(=O)[C@H](CCN)NC(=O)[C@H](CCN)NC(=O)[C@H](CC(C)C)NC(=O)[C@@H](CC(C)C)NC(=O)[C@H](CCN)NC2=O)[C@@H](C)O)NC(=O)[C@H](CO)NC(=O)[C@H](Cc2ccc(O)cc2)NC1=O)C(C)C [Ex. 133] (I: Ac-VCYSE[dDab][Dab]WS[Tle]CS-NH2 / II: [Dab]T[Dap][Dab][Dab][dL]L[Dab][Dab]T; disulfide I:2-I:11; amide I:5-II:N; lactam II:4-II:C) | 2 |
| 0.03125 (≈ 0.0126 µM) | 0.03125 (≈ 0.0126 µM) | 0.125 (≈ 0.0503 µM) | 0.125 (≈ 0.0503 µM) | 0.125 (≈ 0.0503 µM) | 0.125 (≈ 0.0503 µM) | 0.03125 (≈ 0.0126 µM) | 0.0625 (≈ 0.0252 µM) | CC(=O)N[C@H](C(=O)N[C@H]1CSSC[C@@H](C(=O)N[C@H](C(N)=O)[C@@H](C)O)NC(=O)[C@H](C(C)(C)C)NC(=O)[C@H](CCC(=O)O)NC(=O)[C@H](Cc2c[nH]c3ccccc23)NC(=O)[C@H](CCN)NC(=O)[C@@H](CCN)NC(=O)[C@H](CCC(=O)N[C@@H](CCN)C(=O)N[C@H](C(=O)N[C@@H](CN)C(=O)N[C@H]2CCNC(=O)[C@H]([C@@H](C)O)NC(=O)[C@H](CCN)NC(=O)[C@H](CCN)NC(=O)[C@H]([C@H](O)C(C)C)NC(=O)[C@@H](CC(C)C)NC(=O)[C@H](CCN)NC2=O)[C@@H](C)O)NC(=O)[C@H](CO)NC(=O)[C@H](Cc2ccc(O)cc2)NC1=O)C(C)C [Ex. 134] (I: Ac-VCYSE[dDab][Dab]WE[Tle]CT-NH2 / II: [Dab]T[Dap][Dab][Dab][dL][Leu(3R-OH)][Dab][Dab]T; disulfide I:2-I:11; amide I:5-II:N; lactam II:4-II:C) | 3 |
| 0.03125 (≈ 0.0127 µM) | 0.0625 (≈ 0.0253 µM) | 0.125 (≈ 0.0506 µM) | 0.0625 (≈ 0.0253 µM) | 0.125 (≈ 0.0506 µM) | 0.0625 (≈ 0.0253 µM) | 0.03125 (≈ 0.0127 µM) | 0.03125 (≈ 0.0127 µM) | CC(=O)N[C@H](C(=O)N[C@H]1CSSC[C@@H](C(=O)N[C@H](C(N)=O)[C@@H](C)O)NC(=O)[C@H](C(C)(C)C)NC(=O)[C@H](CCC(=O)O)NC(=O)[C@H](Cc2c[nH]c3ccccc23)NC(=O)[C@H](CO)NC(=O)[C@@H](CCN)NC(=O)[C@H](CCC(=O)N[C@@H](CCN)C(=O)N[C@H](C(=O)N[C@@H](CN)C(=O)N[C@H]2CCNC(=O)[C@H]([C@@H](C)O)NC(=O)[C@H](CCN)NC(=O)[C@H](CCN)NC(=O)[C@H](CC(C)C)NC(=O)[C@@H](CC(C)C)NC(=O)[C@H](CCN)NC2=O)[C@@H](C)O)NC(=O)[C@H](CCN)NC(=O)[C@H](Cc2ccc(O)cc2)NC1=O)C(C)C [Ex. 135] (I: Ac-VCY[Dab]E[dDab]SWE[Tle]CT-NH2 / II: [Dab]T[Dap][Dab][Dab][dL]L[Dab][Dab]T; disulfide I:2-I:11; amide I:5-II:N; lactam II:4-II:C) | <1 |
